Our source for the T/C values is PubChem BioAssay AID258 (DTP/NCI, 2004).

For the test, the system named is CD2F1 mice, L1210 leukemia sc, survival T/C. Nature of the test: NCI In Vivo Anticancer Drug Screen. Data for tumor model L1210 Leukemia (subcutaneous) in CD2F1 (CDF1) mice. As to conditions: endpoint: median survival time, higher = longer survival. Put shortly:
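Compound given to mice bearing transplantable tumor. Survival or tumor size then recorded. Result expressed relative to vehicle-dosed control group as T/C.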

Several values for one entry are separate records, joined by “and”; a condition that tells them apart may be missing. Identical values can stand only once. Inconclusive results and toxic doses are left out.

`CC[C@](O)(C(=O)O)c1cc2n(c(=O)c1CO)Cc1cc3ccccc3nc1-2`: the T/C was 121 % of control (dose: 1.33 mg/kg/injection, schedule: Q01DX009 (ip), vehicle: saline); 122 % of control (dose: 1.33 mg/kg/injection, schedule: Q01DX009 (sc), vehicle: saline); 154 % of control (dose: 2.0 mg/kg/injection, schedule: Q01DX009 (ip), vehicle: saline); 113 % of control (dose: 4.0 mg/kg/injection, schedule: Q01DX009 (ip), vehicle: saline); 101 % of control (dose: 5.0 mg/kg/injection, schedule: Q01DX009 (sc), vehicle: saline); 86 % of control (dose: 8.0 mg/kg/injection, schedule: Q01DX009 (ip), vehicle: saline). Also, the T/C is, setting by setting: (dose: 8.0 mg/kg/injection, schedule: Q01DX009 (sc), vehicle: saline) 86 % of control; (dose: 12.0 mg/kg/injection, schedule: Q01DX009 (sc), vehicle: saline) 115 % of control; (dose: 16.0 mg/kg/injection, schedule: Q01DX009 (sc), vehicle: saline) 113 % of control.

With `CS(=O)(=O)OCCCCCCCCCOS(C)(=O)=O`, the T/C (dose: 47.0 mg/kg/injection, schedule: Q01DX Z (sc), vehicle: carboxymethylcellulose (CMC)) was 112 % of control.

Turning to `CN1CCN(CN2C(=O)C3C4C=CC(C3C2=O)C2C3C(=O)N(CN5CCN(C)CC5)C(=O)C3C42)CC1` (stereo unspecified), the T/C was 106 % of control (dose: 21.6 mg/kg/injection, schedule: Q01DX009 (ip), vehicle: water); 118 % of control (dose: 24.8 mg/kg/injection, schedule: Q01DX009 (ip), vehicle: water); 113 % of control (dose: 36.0 mg/kg/injection, schedule: Q01DX009 (ip), vehicle: water); 150 % of control (dose: 41.3 mg/kg/injection, schedule: Q01DX009 (ip), vehicle: water); 170 % of control (dose: 60.0 mg/kg/injection, schedule: Q01DX009 (ip), vehicle: water); 174 % of control (dose: 68.8 mg/kg/injection, schedule: Q01DX009 (ip), vehicle: water). Moreover, the T/C (dose: 100.0 mg/kg/injection, schedule: Q01DX009 (ip), vehicle: water) was 243 % of control and the T/C (dose: 114.7 mg/kg/injection, schedule: Q01DX009 (ip), vehicle: water) was 235 % of control.

Take `O=C(Nc1nncs1)c1cccs1`: the T/C was 99 % of control (dose: 50.0 mg/kg/injection, schedule: Q01DX009 (ip), vehicle: saline with Tween-80); 95 % of control (dose: 100.0 mg/kg/injection, schedule: Q01DX009 (ip), vehicle: saline with Tween-80); 100 % of control (dose: 200.0 mg/kg/injection, schedule: Q01DX009 (ip), vehicle: saline with Tween-80); 100 % of control (dose: 400.0 mg/kg/injection, schedule: Q01DX009 (ip), vehicle: saline with Tween-80); 121 % of control (dose: 800.0 mg/kg/injection, schedule: Q01DX009 (ip), vehicle: saline with Tween-80).

For the compound `CO[C@H](/C(C)=C/C=C/C(C)=C/c1coc(C)n1)[C@H](C)[C@H]1C[C@@H](O)[C@@]2(C)O[C@H]2/C=C/[C@@H](C)[C@@H]2C[C@@H](CC(=O)O2)C[C@H]2O[C@@H]2C(=O)O1`, the T/C runs as follows: (dose: 0.25 mg/kg/injection, schedule: Q01DX009 (ip), vehicle: Klucel (hydroxypropylcellulose) (HPC)) 107 % of control; (dose: 1.0 mg/kg/injection, schedule: Q01DX009 (ip), vehicle: Klucel (hydroxypropylcellulose) (HPC)) 119 % of control.

As for `C[C@H](N)C(=O)N[C@@H]1[C@H]2C(=C(O)C[C@@H](O)[C@@H]2O)C(=O)O[C@]1(C)C(Cl)Cl`, the T/C runs as follows: (dose: 0.37 mg/kg/injection, schedule: Q01DX009 (ip), vehicle: water) 111 % of control; (dose: 0.62 mg/kg/injection, schedule: Q01DX005 (ip), vehicle: water) 112 % of control; (dose: 0.62 mg/kg/injection, schedule: Q01DX005 (iv), vehicle: water) 113 % of control; (dose: 0.75 mg/kg/injection, schedule: Q01DX009 (ip), vehicle: water) 120 % of control; (dose: 0.75 mg/kg/injection, schedule: Q01DX009 (sc), vehicle: water) 116 % of control; (dose: 1.25 mg/kg/injection, schedule: Q01DX005 (ip), vehicle: water) 124 % of control. Further, the T/C reads like this: (dose: 1.5 mg/kg/injection, schedule: Q01DX009 (oral), vehicle: water) 108 % of control; (dose: 3.0 mg/kg/injection, schedule: Q01DX009 (ip), vehicle: water) 160 % of control; (dose: 3.0 mg/kg/injection, schedule: Q01DX009 (oral), vehicle: water) 109 % of control; (dose: 3.0 mg/kg/injection, schedule: Q01DX009 (sc), vehicle: water) 160 % of control; (dose: 6.0 mg/kg/injection, schedule: Q01DX009 (oral), vehicle: water) 112 % of control; (dose: 12.0 mg/kg/injection, schedule: Q01DX009 (oral), vehicle: water) 120 % of control.

In the case of `C[C@]12CC[C@H](OC3OC(CO)C(O)C(O)C3O)C[C@H]1CC[C@@H]1[C@@H]2CC[C@]2(C)[C@@H](C3=CCOC3=O)CC[C@]12O` (stereo partly specified), the T/C by setting is: (dose: 3.0 mg/kg/injection, schedule: Q01DX Z (sc), vehicle: saline) 110 % of control; (dose: 5.0 mg/kg/injection, schedule: Q01DX Z (sc), vehicle: saline) 110 % of control; (dose: 8.4 mg/kg/injection, schedule: Q01DX Z (sc), vehicle: saline) 110 % of control.

For the compound `N#[N+]c1cnc([O-])[nH]c1=O`, the T/C runs as follows: (dose: 14.0 mg/kg/injection, schedule: Q01DX Z (sc), vehicle: methylcellulose (MC)) 100 % of control; (dose: 23.0 mg/kg/injection, schedule: Q01DX Z (sc), vehicle: methylcellulose (MC)) 100 % of control; (dose: 39.0 mg/kg/injection, schedule: Q01DX Z (sc), vehicle: methylcellulose (MC)) 122 % of control; (dose: 39.0 mg/kg/injection, schedule: Q01DX Z (sc), vehicle: other) 100 % of control; (dose: 65.0 mg/kg/injection, schedule: Q01DX Z (sc), vehicle: other) 116 % of control.

With `NCCCNCCCCNC(=O)C(O)NC(=O)CCCCCCN=C(N)N` (stereo unspecified), the T/C was 156 % of control (dose: 0.75 mg/kg/injection, schedule: Q01DX009 (ip), vehicle: saline); 172 % of control (dose: 1.5 mg/kg/injection, schedule: Q01DX009 (ip), vehicle: saline); 162 % of control and 183 % of control (dose: 1.56 mg/kg/injection, schedule: Q01DX009 (ip), vehicle: saline); 192 % of control (dose: 3.0 mg/kg/injection, schedule: Q01DX009 (ip), vehicle: saline); 198 % of control and 203 % of control (dose: 3.12 mg/kg/injection, schedule: Q01DX009 (ip), vehicle: saline); 107 % of control (dose: 4.0 mg/kg/injection, schedule: Q01DX001 (ip), vehicle: saline). The T/C (dose: 4.0 mg/kg/injection, schedule: Q03HX008 (ip), vehicle: saline) is 121 % of control; the T/C (dose: 6.0 mg/kg/injection, schedule: Q01DX009 (ip), vehicle: saline) is 237 % of control; the T/C (dose: 6.25 mg/kg/injection, schedule: Q01DX009 (ip), vehicle: saline) is 207 % of control and 235 % of control; the T/C (dose: 8.0 mg/kg/injection, schedule: Q01DX001 (ip), vehicle: saline) was 103 % of control and 109 % of control; the T/C (dose: 12.0 mg/kg/injection, schedule: Q01DX009 (ip), vehicle: saline) was 239 % of control; the T/C (dose: 12.5 mg/kg/injection, schedule: Q01DX009 (ip), vehicle: saline) was 228 % of control and 231 % of control. In addition, the T/C (dose: 16.0 mg/kg/injection, schedule: Q01DX001 (ip), vehicle: saline) was 107 % of control and 113 % of control; the T/C (dose: 25.0 mg/kg/injection, schedule: Q01DX009 (ip), vehicle: saline) was 160 % of control and 220 % of control and 275 % of control; the T/C (dose: 32.0 mg/kg/injection, schedule: Q01DX001 (ip), vehicle: saline) was 115 % of control and 123 % of control.

For `Nc1nc(N)c2cc(CCc3ccc(C(=O)NC(CCC(=O)O)C(=O)O)cc3)ccc2n1` (stereo unspecified), the T/C is 98 % of control (dose: 0.04 mg/kg/injection, schedule: Q01DX009 (ip), vehicle: Klucel (hydroxypropylcellulose) (HPC)); 102 % of control (dose: 0.08 mg/kg/injection, schedule: Q01DX009 (ip), vehicle: Klucel (hydroxypropylcellulose) (HPC)); 105 % of control (dose: 0.16 mg/kg/injection, schedule: Q01DX009 (ip), vehicle: Klucel (hydroxypropylcellulose) (HPC)); 89 % of control (dose: 0.63 mg/kg/injection, schedule: Q01DX009 (ip), vehicle: Klucel (hydroxypropylcellulose) (HPC)).

Regarding `CC(=O)OCC(=O)[C@@]1(O)CC[C@H]2[C@@H]3CCC4=CC(=O)CC[C@]4(C)[C@@]3(F)[C@@H](O)C[C@@]21C`, the T/C (dose: 300.0 mg/kg/injection, schedule: Q01DX Z (sc), vehicle: methylcellulose (MC)) was 121 % of control and the T/C (dose: 500.0 mg/kg/injection, schedule: Q01DX Z (sc), vehicle: methylcellulose (MC)) is 115 % of control.
